This is an account of results in patent US10548829B2, “Oral care compositions and methods of use” (priority 2016, dated 2020).

In series [1] the test system is mixed culture containing Actinomyces viscosus, Lactobacillus casei, Streptococcus oralis, Fusobacterium nucleatum and Veilonella parvula. Description: Growth inhibition (OD610), mixed chemostat culture. Format: cell-based, A. viscosus, L. casei, S. oralis, F. nucleatum, V. parvula. The settings on record: for % Inhibition: Mixed species incubated in 37° C., 0.0875 mM. The method, then:
(§1) Single species of Streptococcus gordonii (S. gordonii, S.g) strain V288 (ATCC #35105), Streptococcus sobrinus (S. sobrinus, S.$) strain SL1[CCM 6070, CNCTC 9/89] (ATCC #33478), or Aggregatibacter actinomycetemcomitans were analyzed. Also, a mixed culture containing Actinomyces viscosus (A. viscosus, A.v) strain (ATCC, #43146), Lactobacillus casei (L. casei, L.c) strain (ATCC #334), Streptococcus oralis (S. oralis, S. o) strain (ATCC #35037), Fusobacterium nucleatum (F. nucleatum, F. n) strain (ATCC #10953), and Veilonella parvula (V. parvula, V. p) strain (ATCC #17745) was also analyzed for growth inhibition/toxicity activity. Bacteria were cultured overnight in approximately 20 ml of BHI broth (BD, cat #237500) or maintained in a specialized complex modified BHI II medium in a continuous culture chemostat at 37° C. respectively. The following day, the OD610 were determined and solutions diluted to an OD610 of 0.2 or 0.1 respectively for the assay.
(§2) Triclosan (positive control) was prepared as a 10% stock in 100% EtOH and 3 fold serial dilutions were performed in 100% EtOH. An appropriate amount of the diluted samples was then transferred into a 96 well clear plate such that the resulting final concentration of the test samples ranged from either a 2 mM or 4 mM (highest concentration) to 0.0078 mM or 0.0156 mM (lowest concentration respectively) in 2% DMSO in 100 μl media per well. Triclosan (TCN) ranged from 0.01% to 1.67e-6% in 1% EtOH. For Zinc acetate, in order to mimic the 2:1 molar ratio (ligand:Zinc) in the Naringin:Zinc complex, the final concentration ranged from 0.7 mM to 0.0027 mM for samples with 2 mM as the highest concentration and 1.33 mM to […] for samples with 4 mM as the highest concentration in 2% DMSO. Next, 100 μl of bacterial culture at OD610 0.2 were introduced to the wells with the test samples. The wells were thoroughly mixed and incubated at 37° C. overnight. The plates were read using an Envision plate reader (PerkinElmer, Waltham, Mass.) at 610 nm.
(§3) The IC50 for the complex, Product 5, was determined for Streptococcus gordonii (S. gordonii), Streptococcus sobrinus (S. sobrinus), Aggregatibacter actinomycetemcomitans (A. actinomycetemcomitans), and also for the mixed bacterial culture. […] Triclosan (TCN) was included as a positive control for bacterial inhibition.
(§4) Antimicrobial characterization was also performed on mixed culture solutions having at least five microbial species present. A mixed culture containing Actinomyces viscosus (A. viscosus, A.v) (ATCC, #43146), Lactobacillus casei (L. casei, L.c) (ATCC #334), Streptococcus oralis (S. oralis, S.o) (ATCC #35037), Fusobacterium nucleatum (F. nucleatum, F.n) (ATCC #10953) and Veilonella parvula (V. parvula, V.p) (ATCC #17745) was maintained in a specialized complex medium (Modified BHI II Medium) in a continuous culture chemostat at 37° C. Approximately 10 ml of the culture was removed and the OD610 was determined. The assay was performed using cultures at two concentrations; 0.03 and 0.1 at OD610. […] Triclosan (positive control) was prepared as a 10% stock in 100% EtOH and 3 fold serial dilutions were performed in 100% EtOH. […] For Zinc Acetate, in order to mimic the 2:1 ratio (ligand:Zinc) composition as in the complex, the final concentration range from 0.7 mM to 0.0027 mM in 2% DMSO was used instead.
(§5) A 100 μl of bacterial culture at chosen OD610 (0.03 or 0.1) was introduced into the wells with the test samples. The wells were thoroughly mixed and plates incubated overnight in a 37° C. incubator with or without 5% CO2. After approximately 12-13 hours of treatment, the plate was read using Envision plate reader (Serial #1040984), absorbance at 610 nm. The % inhibition relative to control was determined as described for previously described antimicrobial protocols, supra.

Series [2] deals with EpiGingival™ tissue models. In words: Tissue zinc uptake analysis. The class given is in vitro ADME. Particulars: 2 minute treatment. The method, then: All samples were prepared in a final concentration of 1% DMSO in 7% of Propylene Glycol (PG). […] For the vehicle only control, 1% DMSO in 7% PG was used. All samples were equilibrated to 37° C. prior to testing.
Zinc uptake studies were performed using EpiGingival™ tissue models from MatTek Corporation. Briefly, EpiGingival™ tissue inserts were equilibrated overnight in 1 ml of the EpiGingival™ assay media (supplied by MatTek Corporation). For testing, working with one insert at a time, the insert was removed and placed inside a clean 6 well plate. Then, 1 ml of the test sample was carefully removed and introduced to the inside of the insert and allowed to incubate for 2 minutes. Next, the samples were removed using an aspirator and the tissue rinsed with 1 ml of warm water (37° C.). This was repeated for 2 more times for a total of 3 washes. At the end of the last wash making sure to remove as much of the water as possible, the tissue was disengaged from the insert with the tip of a sterile forceps, and transferred into a clean 15 ml Falcon tube. The process was repeated until all the tissues were treated. Experiments were performed three times with each test sample assayed in duplicate.
Digestion of Tissues: Briefly, 0.5 ml of a mixture of 7:3 HCl/HNO3 was introduced into a 15 ml Falcon tube containing one of the treated tissue samples and allowed to digest overnight. The following day, 4.5 ml of water was added to each of the digested tissue samples, thoroughly mixed and centrifuged at 4,000 RPM for 10 minutes at room temperature. The clear supernatant (4.5 ml) was transferred into a clean, labeled Falcon tube and submitted for analytical analysis of Zinc.
A one way ANOVA was done to determine the p value. A plot of the average zinc (ppm) against the various treatments was generated (see FIG. 19).

The nature of series [3]: Growth inhibition (OD610), mixed chemostat culture. Particulars: Mixed species incubated in 37° C. Format: cell-based, A. viscosus, L. casei, S. oralis, F. nucleatum, V. parvula. As for the experimental part: as §1, §2, §3, §4, §5
Where [4] appears, read: 1 mM complex or combination, 0.33 mM Zinc acetate.

Read-outs that look alike come from different tables or passages of the source.

Take `CC(=O)[O-].CC(=O)[O-].[Zn+2]` [Zinc Acetate alone, Zinc (II) Acetate]: the IC50 entry in series [1] (Mixed Species (aerobic)) is on record as “Ambiguous”. Also, the IC50 in series [1] (Mixed Species (anaerobic), read-out: IC50) was determined as 250 µM. Further, the “% Inhibition” value in series [1] (5% CO2 (anaerobic)) is on record as −1.46 ± 0.0%. Moreover, in series [1] (Air (aerobic)), the “% Inhibition” value stood at 18.07 ± 2.65%. Besides, the “Zn (ppm) Preparation 1 N1” value in series [2] (1 mM complex or combination (0.67 mM + 0.33 mM), 0.33 mM Zinc acetate) was found to be 0.96 ppm. In series [2] (setting [4]), the “Zn (ppm) Preparation 1 N2” value was 0.92 ppm, the “Zn (ppm) Preparation 2 N1” value is recorded as 0.82 ppm, the “Zn (ppm) Preparation 2 N2” value is 0.81 ppm and the “Zn (ppm) Preparation 3 N1” value is 0.84 ppm. In series [2] (setting [4]), the “Zn (ppm) Preparation 3 N2” value was 0.85 ppm. Moreover, in series [2] (average of three preparations in duplicate), the “Zn Ave (ppm)” value turned out to be 0.87 ppm.

Regarding `C[C@@H]1O[C@@H](O[C@H]2[C@H](Oc3cc(O)c4c(c3)O[C@H](c3ccc(O)cc3)CC4=O)O[C@H](CO)[C@@H](O)[C@@H]2O)[C@H](O)[C@H](O)[C@H]1O` [Naringin], the inhibition at 250 µM in series [3] (5% CO2 (anaerobic), 0.25 mM (combination 0.1625 mM + 0.0875 mM, 0.25 mM total)) turned out to be 3.51 ± 1.53%; in series [3] (Air (aerobic), 0.25 mM (combination 0.25 mM total)) it was 3.1 ± 3.31%.
